Here are results for seven compounds from patent publication US9597316B2, “Indole compounds for use in treating inflammation and cancer” (BIOVENTURES LLC, priority 2012, dated 2017).

Molecules are shown by their SMILES.

The test system of data set [1] is DU-145 (Prostrate Cancer). Briefly: five dose-response growth inhibition/cytotoxicity, DU-145. Format: cell-based, human. As to conditions: for CC50: read-out: LC50 (the source's name).
Description: (§1) The preliminary evaluation of compounds 3a-z was carried out at a single dose of 10 μM, against a panel of 60 human tumor cell lines, according to the procedure described by Rubinstein et al., Natl. Cancer. […] The human tumor cell line panel included leukemia, non-small cell lung, colon, central nervous system (CNS), melanoma, ovarian, renal, prostate, and breast cancer cell lines.
(§2) Dose-response curves were created by plotting cytotoxic effect against the log10 of the drug concentration for each cell line. Cytotoxic effects of each compound were determined as GI50 and LC50 values, which represent the molar drug concentration for causing 50% growth inhibition, and the concentration that kills 50% of the cells, respectively.
In data set [2] the test system is SK-MEL-5 (Melanoma). In words: five dose-response growth inhibition/cytotoxicity, SK-MEL-5. Format: cell-based, human. As to conditions: for CC50: read-out: LC50 (the source's name).
Description: as §1, §2
Data set [3] concerns MDA-MB-435 (Melanoma). In words: five dose-response growth inhibition/cytotoxicity, MDA-MB-435. As to conditions: for CC50: read-out: LC50 (the source's name). Format: cell-based, human.
Description: as §1, §2
In data set [4] the test system is SF-539 (CNS Cancer). In words: five dose-response growth inhibition/cytotoxicity, SF-539. Format: cell-based, human. Conditions: for CC50: read-out: LC50 (the source's name).
Description: as §1, §2
The test system of data set [5] is SF-268 (CNS Cancer). In words: five dose-response growth inhibition/cytotoxicity, SF-268. The format is cell-based, human. Conditions: for CC50: read-out: LC50 (the source's name).
Description: as §1, §2
For data set [6], the system named is SR (Leukemia). Briefly: five dose-response growth inhibition/cytotoxicity, SR. As to conditions: for CC50: read-out: LC50 (the source's name). The format is cell-based, human.
Description: as §1, §2
In data set [7] the test system is OVCAR-3 (Ovarian Cancer). In words: five dose-response growth inhibition/cytotoxicity, OVCAR-3. As to conditions: for CC50: read-out: LC50 (the source's name). The format is cell-based, human.
Description: as §1, §2
Data set [8] concerns UACC-62 (Melanoma). Briefly: five dose-response growth inhibition/cytotoxicity, UACC-62. Format: cell-based, human. As to conditions: for CC50: read-out: LC50 (the source's name).
Description: as §1, §2
The test system of data set [9] is HCT-116 (Colon Cancer). In words: five dose-response growth inhibition/cytotoxicity, HCT-116. Conditions: for CC50: read-out: LC50 (the source's name). The format is cell-based, human.
Description: as §1, §2
The test system of data set [10] is NCI/ADR-RES (Ovarian Cancer). Briefly: five dose-response growth inhibition/cytotoxicity, NCI/ADR-RES. As to conditions: for CC50: read-out: LC50 (the source's name). Format: cell-based, human.
Description: as §1, §2
Data set [11] has as its system HL-60(TB) (Leukemia). Conditions: for CC50: read-out: LC50.
Description: as §1, §2
The subject of data set [12] is KM-12 (Colon Cancer). Conditions: for CC50: read-out: LC50.
In data set [13] the test system is HOP-62 (Non-Small Cell Lung Cancer). In words: five dose-response growth inhibition/cytotoxicity, HOP-62. Format: cell-based, human. Conditions: for CC50: read-out: LC50 (the source's name).
Description: as §1, §2
In data set [14] the test system is CCRF-CEM (Leukemia). In words: five dose-response growth inhibition/cytotoxicity, CCRF-CEM. The format is cell-based, human. As to conditions: for CC50: read-out: LC50 (the source's name).
Description: as §1, §2
Data set [15] has as its system LOX IMVI (Melanoma). In words: five dose-response growth inhibition/cytotoxicity, LOX IMVI. The format is cell-based, human. Conditions: for CC50: read-out: LC50 (the source's name).
Description: as §1, §2
Data set [16] has as its system U251 (CNS Cancer). In words: five dose-response growth inhibition/cytotoxicity, U251. Format: cell-based, human. Conditions: for CC50: read-out: LC50 (the source's name).
Description: as §1, §2
The subject of data set [17] is K-562 (Leukemia). Briefly: five dose-response growth inhibition/cytotoxicity, K-562. Conditions: for CC50: read-out: LC50 (the source's name). The format is cell-based, human.
Description: as §1, §2
Data set [18] has as its system leukemia cell lines in the panel. In words: five dose-response growth inhibition, leukemia cell lines in the panel. The format is cell-based, human. As to conditions: all four leukemia cell lines in the panel; read-out: GI50 values in the range.
Description: as §1, §2
In data set [19] the test system is HCT-15 (Colon Cancer). In words: five dose-response growth inhibition/cytotoxicity, HCT-15. The format is cell-based, human. As to conditions: for CC50: read-out: LC50 (the source's name).
Description: as §1, §2
For data set [20], the system named is M14 (Melanoma). In words: five dose-response growth inhibition/cytotoxicity, M14. Format: cell-based, human. As to conditions: for CC50: read-out: LC50 (the source's name).
Description: as §1, §2
For data set [21] the following is noted: in water; cited from earlier work.
Data set [22] deals with panel of 60 human tumor cell lines. Briefly: single dose (10 μM) evaluation against panel of 60 human tumor cell lines. Format: cell-based. As to conditions: any of the human cancer cell lines in the 60 cell panel.
Description: as §1
Data set [23] has as its system MOLT-4 (Leukemia). In words: five dose-response growth inhibition/cytotoxicity, MOLT-4. As to conditions: for CC50: read-out: LC50 (the source's name). The format is cell-based, human.
Description: as §1, §2
A short description of data set [24]: five dose-response growth inhibition/cytotoxicity, UO-31. Format: cell-based, human. As to conditions: for CC50: read-out: LC50 (the source's name).
Description: as §1, §2
Data set [25] has as its system HOP-92 non-small cell lung cancer. In words: five dose-response growth inhibition/cytotoxicity, HOP-92. As to conditions: for CC50: read-out: LC50 (the source's name). Format: cell-based, human.
Description: as §1, §2
Data set [26] deals with three melanoma cell lines. In words: five dose-response growth inhibition, melanoma cell lines. As to conditions: read-out: GI50 values in the range. Format: cell-based, human.
Description: as §1, §2

With `COc1ccc2c(c1)c(C=C1C(=O)NC(=S)NC1=O)cn2C(=O)c1ccccc1Br` [Compound 3s], the GI50 (in general, the concentration that inhibits growth by half) in data set [1] turned out to be 3.01 µM; in data set [2] it was 3.47 µM; in [3] (MDA-MB-435), 1.77 µM; in data set [4], 3 µM; in [5], 3.86 µM; in data set [6] it was 2.55 µM. In addition, the GI50 in data set [7] stood at 2.77 µM; in data set [8], 3.38 µM; in data set [9], 3.76 µM; in data set [10], 3.23 µM; in [11] it was 3.24 µM; in data set [12], 3.87 µM. In addition, the GI50 in data set [13] is 3.59 µM; in data set [14], 4 µM; in data set [15], 2.92 µM; in [16], 3.09 µM; in [17], 3.8 µM; in data set [18], 2.55 to 4 µM. For the same compound, the GI50 in data set [19] came out at 3.83 µM; in data set [20] it was 3.52 µM. In addition, the CC50 in data set [1] is 53.6 µM; in data set [2], over 50 µM; in data set [3] (MDA-MB-435), 8.43 µM; in data set [4] it was 57.8 µM; in data set [5], 52.2 µM; in [6], over 100 µM. The CC50 in data set [7] is 33.1 µM; in data set [8], 39.6 µM; in [9], over 100 µM; in data set [10], over 100 µM; in [11], over 100 µM; in [12], 51.9 µM. For the same compound, the CC50 in data set [13] was 64.3 µM; in [14], over 100 µM; in data set [15] it was 47.9 µM; in [16], 42.1 µM; in data set [17], over 100 µM; in data set [19], 89.9 µM. Moreover, the CC50 in data set [20] was over 100 µM.
Consider `COc1ccc(C(=O)n2cc(C=C3C(=O)NC(=S)NC3=O)c3cc(OC)ccc32)cc1` [Compound 3k], for which the GI50 in data set [1] was 2.41 µM; in data set [2] it was 2.31 µM; in data set [3] (MDA-MB-435), 0.85 µM; in data set [3] (melanoma MDA-MB-435) it was 0.85 µM; in data set [4], 2.56 µM; in [5] it was 2.65 µM. The GI50 in data set [6] came to 1.45 µM; in data set [7] it was 1.26 µM; in data set [8] it was 2.33 µM; in data set [9] it was 1.95 µM; in data set [10], 2.91 µM; in [11] it was 3.91 µM. Also, the GI50 was found to be 1.99 µM in [12]; 3.12 µM in data set [13]; 2.23 µM in data set [14]; 1.86 µM in data set [15]; 1.93 µM in [16]; 2.55 µM in data set [17]. Further, the GI50 in [18] is 1.45 to 3.91 µM; in data set [19], 1.8 µM; in data set [20], 2.03 µM. Besides, the CC50 in [1] was over 50 µM; in data set [2], over 50 µM; in [3] (MDA-MB-435), 3.86 µM; in data set [4] it was over 50 µM; in [5] it was over 50 µM; in [6] it was 39.4 µM. The CC50 in data set [7] was at least 50 µM; in data set [8], over 50 µM; in [9], at least 50 µM; in data set [10], over 50 µM; in data set [11], over 50 µM; in data set [12], at least 50 µM. Further, the CC50 in data set [13] was over 50 µM; in data set [14] it was over 50 µM; in data set [15], at least 50 µM; in [16] it was over 50 µM; in [17] it was over 50 µM; in data set [19], at least 50 µM. Also, the CC50 in data set [20] was over 50 µM.
Consider `O=C1CC(=O)NC(=S)N1` [2-Thiobarbituric acid], for which, in data set [21], the pKa – broadly, the negative logarithm of the acid dissociation constant – is 2.1.
In the case of `COc1ccc2c(c1)c(C=C1C(=O)NC(=S)NC1=O)cn2C(=O)c1ccc2ccccc2c1` [Compound 3z], the “cytotoxic potency against the 60 cell panel” value in data set [22] is “not identified as potent cytotoxic agents”.
Same read-out and setting: to `O=C1NC(=S)NC(=O)C1=Cc1cn(C(=O)c2ccc3ccccc3c2)c2ccccc12` [Compound 3x] belongs “not identified as potent cytotoxic agents”.
`O=C1NC(=S)NC(=O)C1=Cc1cn(C(=O)c2cccc3ccccc23)c2ccccc12` [Compound 3t]: the GI50 in [23] amounted to 3.49 µM; in [3] (MDA-MB-435), 1.91 µM; in data set [4] it was 3.68 µM; in data set [24] it was 3.93 µM; in data set [6], 2.74 µM; in [7], 2.46 µM. The GI50 worked out at 2.9 µM in data set [9]; 2.59 µM in [10]; 3.36 µM in data set [11]; 1.3 µM in data set [13]; 3.35 µM in data set [14]; 3.59 µM in data set [15]. In addition, the GI50 in [16] is 3.58 µM; in data set [17], 3.71 µM; in [18] it was 2.74 to 3.71 µM; in [25], 1.3 µM; in [19] it was 3.6 µM; in data set [20], 3.22 µM. Further, the CC50 in data set [23] was 79 µM; in [3] (MDA-MB-435) it was 9.23 µM; in [4], 58.6 µM; in data set [24] it was over 100 µM; in data set [6] it was 92.3 µM; in [7] it was 46.2 µM. Besides, the CC50 is over 100 µM in data set [9]; over 100 µM in data set [10]; over 100 µM in data set [11]; 44.8 µM in data set [13]; over 100 µM in data set [14]; 55.6 µM in data set [15]. Moreover, the CC50 is 50.7 µM in [16]; over 100 µM in data set [17]; 44.8 µM in [25]; over 100 µM in data set [19]; over 100 µM in [20].
As for `COc1ccc2c(c1)c(C=C1C(=O)NC(=S)NC1=O)cn2C(=O)c1cccc2ccccc12` [Compound 3w], the GI50 is 1.91 to 3.8 µM in data set [26]; 3.95 µM in data set [23]; 2.01 µM in data set [3] (MDA-MB-435); 2.3 µM in data set [4]; 3.72 µM in [24]; 3.32 µM in data set [6]. Also, the GI50 in data set [7] was determined as 2.38 µM; in data set [9], 3.35 µM; in data set [10] it was 3.14 µM; in data set [11], 3.47 µM; in [13] it was 1.09 µM; in data set [14] it was 3.31 µM. The GI50 in data set [15] is 3.8 µM; in data set [16], 3.23 µM; in [17] it was 3.52 µM; in [18], 3.31 to 3.95 µM; in [25] it was 1.09 µM; in data set [19] it was 3.1 µM. The compound further yielded a GI50 in data set [20] of 1.91 µM. Further, the CC50 in data set [23] was over 100 µM; in data set [3] (MDA-MB-435), 12 µM; in data set [4], over 100 µM; in data set [24], over 100 µM; in [6] it was over 100 µM; in data set [7], 20.9 µM. The CC50 in data set [9], in data set [10], in [11], in data set [13], in data set [14] and in data set [15] was over 100 µM in each case. In addition, the CC50 in [16] is over 100 µM; in data set [17], over 100 µM; in data set [25], at least 100 µM; in [19] it was over 100 µM; in [20], over 100 µM.
